In BindingDB's records for doi:10.1016/0922-4106(94)90227-5 (Novo Nordisk, 1994):

How the values were obtained:
[1] = molecular target: Metabotropic glutamate receptor 2 (Homo sapiens, UniProt Q14416)
[2] = molecular target: Metabotropic glutamate receptor 4 (Rattus norvegicus, UniProt P31423)
[3] = molecular target: Metabotropic glutamate receptor 1 (Rattus norvegicus, UniProt P23385)
[4] = molecular target: Glutamate receptor ionotropic, kainate 1 (Rattus norvegicus, UniProt P22756)
[5] = molecular target: Glutamate receptor ionotropic, NMDA 1 (Rattus norvegicus, UniProt P35439)
Glutamate receptor 3 = Glutamate receptor 3 (Rattus norvegicus, UniProt P19492)
Glutamate receptor 3, sequence (P19492 whole entry): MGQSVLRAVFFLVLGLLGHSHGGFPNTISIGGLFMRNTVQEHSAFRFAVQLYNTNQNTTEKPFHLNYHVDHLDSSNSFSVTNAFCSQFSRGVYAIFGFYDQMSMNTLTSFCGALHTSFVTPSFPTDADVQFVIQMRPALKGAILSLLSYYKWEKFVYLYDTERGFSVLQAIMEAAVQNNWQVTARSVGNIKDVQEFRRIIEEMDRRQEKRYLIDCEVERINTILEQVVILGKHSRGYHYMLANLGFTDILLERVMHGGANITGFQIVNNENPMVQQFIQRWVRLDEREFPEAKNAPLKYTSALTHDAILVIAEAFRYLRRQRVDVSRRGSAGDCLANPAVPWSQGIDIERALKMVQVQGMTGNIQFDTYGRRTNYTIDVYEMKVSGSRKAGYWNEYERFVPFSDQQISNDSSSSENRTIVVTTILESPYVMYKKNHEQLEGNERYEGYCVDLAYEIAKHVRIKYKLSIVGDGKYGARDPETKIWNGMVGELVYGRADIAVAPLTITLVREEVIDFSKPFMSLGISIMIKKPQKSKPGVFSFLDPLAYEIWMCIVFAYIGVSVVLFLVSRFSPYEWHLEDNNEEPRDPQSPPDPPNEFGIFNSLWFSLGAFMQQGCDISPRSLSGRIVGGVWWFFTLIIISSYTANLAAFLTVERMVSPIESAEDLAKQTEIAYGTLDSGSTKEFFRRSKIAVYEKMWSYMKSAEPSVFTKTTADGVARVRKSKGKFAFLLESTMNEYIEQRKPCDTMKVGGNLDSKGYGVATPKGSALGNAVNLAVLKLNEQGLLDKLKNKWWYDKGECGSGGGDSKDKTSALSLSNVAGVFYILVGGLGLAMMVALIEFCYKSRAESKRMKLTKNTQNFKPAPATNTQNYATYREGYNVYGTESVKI

Measured: Ki

Glutamate receptor ionotropic, kainate 1, sequence (P22756 whole entry): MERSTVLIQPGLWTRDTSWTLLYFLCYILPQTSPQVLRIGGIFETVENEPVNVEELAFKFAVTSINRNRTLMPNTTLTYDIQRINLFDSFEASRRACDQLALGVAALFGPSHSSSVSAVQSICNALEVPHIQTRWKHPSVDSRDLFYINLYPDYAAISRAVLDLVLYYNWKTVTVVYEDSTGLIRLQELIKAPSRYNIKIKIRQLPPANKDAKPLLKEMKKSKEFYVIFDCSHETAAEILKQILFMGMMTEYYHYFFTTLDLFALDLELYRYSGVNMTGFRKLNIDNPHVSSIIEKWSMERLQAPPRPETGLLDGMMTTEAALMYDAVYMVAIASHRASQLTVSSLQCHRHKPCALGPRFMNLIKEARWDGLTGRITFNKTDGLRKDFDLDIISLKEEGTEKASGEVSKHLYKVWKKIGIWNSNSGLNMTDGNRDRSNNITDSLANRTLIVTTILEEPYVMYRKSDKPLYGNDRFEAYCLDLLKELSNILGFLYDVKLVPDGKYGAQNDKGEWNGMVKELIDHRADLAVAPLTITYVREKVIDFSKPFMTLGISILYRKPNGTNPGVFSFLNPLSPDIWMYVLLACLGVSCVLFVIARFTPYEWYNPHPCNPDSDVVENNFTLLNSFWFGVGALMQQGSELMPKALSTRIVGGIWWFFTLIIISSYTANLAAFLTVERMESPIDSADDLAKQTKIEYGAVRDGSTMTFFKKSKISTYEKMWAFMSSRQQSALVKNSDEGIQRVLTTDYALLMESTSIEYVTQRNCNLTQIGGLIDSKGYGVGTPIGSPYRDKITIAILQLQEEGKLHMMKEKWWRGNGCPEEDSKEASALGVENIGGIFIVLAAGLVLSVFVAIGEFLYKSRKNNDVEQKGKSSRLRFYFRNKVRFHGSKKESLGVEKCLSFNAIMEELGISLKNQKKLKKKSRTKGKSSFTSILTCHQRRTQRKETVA
Metabotropic glutamate receptor 4, sequence (P31423 whole entry): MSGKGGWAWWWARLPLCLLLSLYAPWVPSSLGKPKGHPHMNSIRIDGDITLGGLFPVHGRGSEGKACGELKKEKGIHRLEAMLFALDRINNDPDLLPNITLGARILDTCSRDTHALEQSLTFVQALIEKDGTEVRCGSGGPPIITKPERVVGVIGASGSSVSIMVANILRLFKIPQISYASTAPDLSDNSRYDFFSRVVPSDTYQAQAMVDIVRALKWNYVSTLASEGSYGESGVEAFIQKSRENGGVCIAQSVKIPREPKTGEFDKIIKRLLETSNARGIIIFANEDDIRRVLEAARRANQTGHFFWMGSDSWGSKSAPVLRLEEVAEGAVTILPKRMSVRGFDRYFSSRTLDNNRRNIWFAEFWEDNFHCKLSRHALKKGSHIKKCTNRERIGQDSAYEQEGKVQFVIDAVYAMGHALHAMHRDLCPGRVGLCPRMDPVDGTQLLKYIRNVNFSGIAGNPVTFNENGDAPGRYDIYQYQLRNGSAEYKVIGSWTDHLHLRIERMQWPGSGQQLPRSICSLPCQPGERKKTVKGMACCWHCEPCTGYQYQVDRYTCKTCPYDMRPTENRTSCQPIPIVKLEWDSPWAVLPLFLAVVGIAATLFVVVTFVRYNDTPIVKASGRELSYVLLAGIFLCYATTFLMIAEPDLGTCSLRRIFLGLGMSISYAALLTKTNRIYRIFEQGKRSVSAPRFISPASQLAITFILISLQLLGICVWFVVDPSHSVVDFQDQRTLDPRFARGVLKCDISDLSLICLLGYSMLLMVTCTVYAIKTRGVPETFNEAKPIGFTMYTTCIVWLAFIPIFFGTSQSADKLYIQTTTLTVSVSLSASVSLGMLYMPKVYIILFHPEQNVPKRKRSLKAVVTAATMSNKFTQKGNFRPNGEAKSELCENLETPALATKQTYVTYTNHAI
Metabotropic glutamate receptor 1, sequence (P23385 whole entry): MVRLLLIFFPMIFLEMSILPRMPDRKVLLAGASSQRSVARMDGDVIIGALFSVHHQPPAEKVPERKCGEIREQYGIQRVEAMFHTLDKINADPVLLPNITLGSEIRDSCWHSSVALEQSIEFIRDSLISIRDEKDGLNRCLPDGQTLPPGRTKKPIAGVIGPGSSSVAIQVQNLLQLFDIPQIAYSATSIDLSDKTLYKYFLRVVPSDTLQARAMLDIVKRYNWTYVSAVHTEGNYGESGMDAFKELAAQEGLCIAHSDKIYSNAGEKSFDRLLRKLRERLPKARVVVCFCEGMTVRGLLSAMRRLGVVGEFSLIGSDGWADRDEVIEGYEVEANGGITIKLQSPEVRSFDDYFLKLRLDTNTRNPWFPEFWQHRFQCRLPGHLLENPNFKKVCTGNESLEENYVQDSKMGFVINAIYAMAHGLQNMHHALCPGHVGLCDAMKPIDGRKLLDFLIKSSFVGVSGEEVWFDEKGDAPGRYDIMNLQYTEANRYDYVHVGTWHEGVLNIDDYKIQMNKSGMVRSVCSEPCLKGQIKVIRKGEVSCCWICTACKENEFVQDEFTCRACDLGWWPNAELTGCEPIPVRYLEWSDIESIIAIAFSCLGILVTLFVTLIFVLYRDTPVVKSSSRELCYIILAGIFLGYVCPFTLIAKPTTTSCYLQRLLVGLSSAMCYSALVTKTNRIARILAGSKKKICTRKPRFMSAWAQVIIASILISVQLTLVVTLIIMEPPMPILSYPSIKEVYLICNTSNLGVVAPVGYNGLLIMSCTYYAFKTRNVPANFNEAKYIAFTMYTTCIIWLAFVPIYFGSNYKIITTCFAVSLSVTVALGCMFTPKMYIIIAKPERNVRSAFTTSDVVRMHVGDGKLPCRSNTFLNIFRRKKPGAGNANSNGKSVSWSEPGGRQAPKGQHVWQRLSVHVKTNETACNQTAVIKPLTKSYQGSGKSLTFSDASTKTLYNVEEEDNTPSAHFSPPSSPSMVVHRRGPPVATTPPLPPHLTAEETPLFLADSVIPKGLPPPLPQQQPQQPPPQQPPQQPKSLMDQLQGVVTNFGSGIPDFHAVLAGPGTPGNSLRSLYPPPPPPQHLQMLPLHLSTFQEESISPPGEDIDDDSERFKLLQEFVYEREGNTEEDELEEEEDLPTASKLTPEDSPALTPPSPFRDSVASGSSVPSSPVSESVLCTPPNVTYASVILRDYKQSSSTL
Metabotropic glutamate receptor 2, sequence (Q14416 whole entry): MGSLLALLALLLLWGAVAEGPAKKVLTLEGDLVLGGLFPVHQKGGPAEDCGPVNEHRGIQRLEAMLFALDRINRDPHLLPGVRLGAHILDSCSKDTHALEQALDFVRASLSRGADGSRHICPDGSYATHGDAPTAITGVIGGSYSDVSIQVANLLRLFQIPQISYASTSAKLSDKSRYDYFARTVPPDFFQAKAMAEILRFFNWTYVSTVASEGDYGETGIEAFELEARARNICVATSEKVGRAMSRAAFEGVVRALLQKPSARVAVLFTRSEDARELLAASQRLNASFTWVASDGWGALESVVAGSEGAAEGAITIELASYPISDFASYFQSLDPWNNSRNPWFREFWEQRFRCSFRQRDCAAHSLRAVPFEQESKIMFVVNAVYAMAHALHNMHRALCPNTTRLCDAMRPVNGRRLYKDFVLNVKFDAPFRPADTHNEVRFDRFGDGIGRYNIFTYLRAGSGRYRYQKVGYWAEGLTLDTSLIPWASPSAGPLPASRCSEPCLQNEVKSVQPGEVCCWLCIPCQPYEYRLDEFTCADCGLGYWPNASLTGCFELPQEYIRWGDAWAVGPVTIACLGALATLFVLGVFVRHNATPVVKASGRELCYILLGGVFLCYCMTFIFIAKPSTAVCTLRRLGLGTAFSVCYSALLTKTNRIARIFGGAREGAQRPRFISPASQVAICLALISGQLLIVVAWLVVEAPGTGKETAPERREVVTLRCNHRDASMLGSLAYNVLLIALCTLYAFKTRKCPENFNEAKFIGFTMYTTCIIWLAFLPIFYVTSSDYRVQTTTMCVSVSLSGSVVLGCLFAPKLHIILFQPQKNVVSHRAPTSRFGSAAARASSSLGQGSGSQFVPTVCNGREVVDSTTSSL

NC(C(=O)O)c1ccc(C(=O)O)cc1 (centres undefined) [4-(Amino-carboxy-methyl)-benzoic acid]
> 10 µM: [1] | [2] | [3]

N[C@H](C(=O)O)c1ccc(O)c(C(=O)O)c1 [3C4HPG]
> 10 µM: all assays above

N[C@H](C(=O)O)c1ccc(C(=O)O)cc1 [4-((S)-Amino-carboxy-methyl)-benzoic acid]
> 10 µM: all assays above

N[C@H](C(=O)O)c1cccc(O)c1 [(S)-3-Hydroxyphenylglycine]
> 10 µM: all assays above

C[C@@](N)(C(=O)O)c1ccc(C(=O)O)cc1 (racemic)
> 10 µM: all assays above

N[C@@H](C(=O)O)c1cccc(O)c1 [(R)-3-Hydroxyphenylglyci]
> 10 µM: all assays above

N[C@@H](C(=O)O)c1ccc(O)c(C(=O)O)c1 [CB7394016]
not listed: Glutamate receptor 3
> 10 µM: all other assays above

N[C@@H](C(=O)O)c1ccc(C(=O)O)cc1 [(S)-4CPG]
> 10 µM: all assays above
